The test system of data set [1] is PTH. As to the kind of experiment: Intact PTH sandwich immunoassay, trials IDA-04/IDA-05. The format is in vivo, human. Particulars: IDA-04 and IDA-05 combined. From the text:
The term “serum parathyroid hormone (PTH)” as used herein refers to the level of serum parathyroid hormone in blood serum as measured using a two-site sandwich immunoassay using direct chemiluminometric technology, which used constant amounts of two anti-human PTH antibodies. PTH, produced by the parathyroid gland, is the major circulating factor regulating extracellular calcium concentration. Abnormally low ionized calcium concentrations trigger the secretion of PTH. The PTH molecules bind to type 1 PTH receptors in target tissues and initiate a sequence of reactions that results in an increase in extracellular calcium concentrations. PTH stimulates osteoclastic bone resorption resulting in the release of calcium from bone. […]
The following safety laboratory assessments were analysed: • S-phosphate: inorganic phosphorous forms an ammonium phosphomolybdate complex having the formula (NH4)3[PO4](MoO3)12 with ammonium molybdate in the presence of sulfuric acid. The complex was determined photometrically in the ultraviolet region (340 nm) of the spectrum using the Roche Modular and Cobas Analyzer. • iFGF23 and cFGF23: the human intact FGF23 was measured by the 2nd generation Elisa kit manufactured by Immonotropics, Inc, San Clemente, CA. […] The human C-terminal FGF23 was measured by the Elisa kit manufactured by Immonotropics, Inc, San Clemente, CA. […]

Data set [2] in a line: Respiratory muscles strength (MIP and MEP), trials IDA-04/IDA-05. Type of data set: in vivo, human. Particulars: relative to the comparator IV iron treatment. The protocol:
(§1) The trial was a randomized, open-label, comparative trial. Subjects with Iron Deficiency Anaemia (IDA) were randomized 1:1 to one treatment course of one of the following treatments: • Group A: iron isomaltoside 1000 (Monofer®, Pharmacosmos, Holbok, Denmark, termed iron isomaltoside in the following), 1000 mg at baseline • Group B: ferric carboxymaltose (Ferinject®/Injectafer®, Vifor Inc, Switzerland), 750 mg at baseline and day 7, cumulative dose: 1500 mg […]
The measurements of MIP and MEP provided a non-invasive clinical method for evaluating the strength of respiratory muscles, and it was the most widely used test to assess muscle pressures [ATS/ERS statement, 2002]. […] MIP and MEP were measured by MicroRPM (CareFusion Germany 234 GmbH, Hoechberg, Germany). […]

Data set [3] can be described thus: Fractional urinary phosphate excretion, spot urine, trials IDA-04/IDA-05. Type of data set: in vivo, human. To be noted: FCM vs IIM. The method, then:
The term “fractionary urinary excretion of phosphate (FEPi)” (sometimes abbreviated FEPO4) is a measure of how much phosphate is not re-absorbed from the pre-urine in the kidneys, i.e., how much phosphate ends up in the urine as a proportion of how much phosphate the subject has in the blood. It is calculated like this: FEPi=[PO4 (Urine)*Creatinine (Serum)]/[PO4 (Serum)*Creatinine (Urine)]*100. An FEPi of 10-20% (0.1-0.2 fraction) is usually considered to be normal; an FEPi <10% (<0.1 fraction) is usually considered to be low; and an FEPi >20% (>0.2 fraction) is usually considered to be high. Phosphate in urine is measured using the same methodology as for serum.
as §1

The conditions of data set [4]: cited from earlier work.
[5] abbreviates: compared to iron dextran, iron sucrose and iron isomaltoside 1000.

For ferric carboxymaltose [FCM], the PTH entry in data set [1] is recorded as “increase”. The “respiratory muscle strength (maximal inspiratory and/or expiratory pressure)” value in data set [2] is “reduced”. The “Fractional urinary excretion of phosphate” value in data set [3] is recorded as “significantly increased”. Moreover, in data set [4] (clinical trials and case reports, Wolf et al., 2013), the “risk for iFGF23-mediated reduction of serum phosphate levels and development of hypophosphatemia” value was “highest risk”. The “time to minimum serum phosphorous values” in data set [4] (clinical trials, EU SmPC) was “approximately 2 weeks”. Further, in data set [4] (setting [5]), the prevalence of hypophosphatemia entry is given as “higher prevalence”; the “reduction in serum phosphate” value is “larger and longer reduction”. In data set [4] (following treatment, clinical trials, EU SmPC), the “time until serum phosphorous returned to within the range of baseline” value is given as 4 to 12 weeks. Further, the serum phosphate entry in data set [4] (women with IDA secondary to heavy uterine bleeding, Wolf et al., 2013) was “reduced”.
